{"source": "patent US20050054103A1", "about": "“Expansion of renewable stem cell populations using modulators of PI 3-kinase” (priority 2003, published 2005)", "key": {"Hepatocytes": {"test_system": "Hepatocytes", "test": "Hepatocyte cultures ex-vivo expanded with TEPA", "format": "cell-based, BALB/c mice", "conditions": "15 μg/ml TEPA, five weeks", "experimental": "Hepatocytes: Livers were dissected from anesthetized BALB/c mice with sterile tools and immersed into F12 culture medium (Biological Industries, Kibbutz Bet Ha'Emek, Israel). The livers were washed three times with 3% BSA/PBS buffer and minced into small pieces with seizures. Following three washes with 3% BSA/PBS the liver tissue pieces were incubated for 30 minutes with 0.05% collagenase at 37° C. with continuos shaking under 5% CO2 atmosphere. The digested liver tissue pieces were than mashed by pressing through a fine mesh strainer. After three washes with 3% BSA/PBS the liver cells were seeded into F12 culture medium enriched with: 15 mM HEPES buffer, […], 10 mM sodium bicarbonate, 0.5 u/ml insulin, 7.5 ng/ml hydrocortisone and with or without 15 μg/ml of TEPA and incubated at 37° C. in a 5% CO2 atmosphere. After overnight incubation the medium was removed and the cells were supplemented with fresh enriched F12 medium as described above with or without 15 μg/ml of TEPA. Hepatocytes were incubated in 35 mm dishes for several weeks with enriched F12 culture medium with or without 15 μg/ml TEPA at 37° C. under 5% CO2 atmosphere. Cell culture medium was replaced every week with a fresh medium."}, "[1]": {"test_system": "Boston fern Callus tissue cultures", "test": "Intracellular copper content of plant callus tissues incubated with TEPA", "format": "cell-based", "conditions": "two days", "experimental": "Plant cells: The effect of TEPA on the intracellular copper content of plant cells was determined as follows. Boston fern Callus tissue cultures were obtained from a commercial plant tissue culture production facility (Biological Industries, Kibbutz Bet Ha'Emek, Israel) and incubated with different concentrations of TEPA in the culture medium for two days at room temperature. After three washes with PBS the tissues were suspended in 0.03 M ultra pure nitric acid and homogenized with a high shear mixer (polytron, Kinematica, Switzerland) for 3 minutes to disrupt the cells and release intracellular copper. Cell samples were vortexed before transferring to a vial autosampler and analyzed in duplicate by a Perkin Elmer graphite furnace atomic absorption spectrophotometer at a wavelength of 324.7 nm. The samples were analyzed against copper standard solution prepared from a commercial stock solution that was diluted with 0.03 M ultra pure nitric acid."}, "HL-60 cells": {"test_system": "HL-60 cells", "test": "Copper determination in chelator treated cells (atomic absorption)", "format": "cell-based, human", "experimental": "Copper Determination: Cells were harvested by centrifugation at 1000×g for 5 minutes. The cell pellet was washed three times by re-suspending the cells in PBS (Ca^++ and Mg^++ free) and centrifugation at 1000×g. An aliquot containing 2×10^6 cells was then transferred into a metal-free Eppendorf tube and the cells were recovered by centrifugation at 1000×g. The cell pellet was re-suspended in 0.03 M ultra-pure nitric acid to give a concentration of 1×10^7 cells/ml. The cells were homogenized with a high shear mixer (polytron, Kinematica, Switzerland) for 1 minutes to disrupt the cell and release intracellular copper content. Cell samples were vortexed before transferring to a vial autosampler and analyzed in duplicate by a Perkin Elmer graphite furnace atomic absorption spectrophotometer at a wavelength of 324.7 nm. The samples were analyzed against copper standard solution prepared from a commercial stock solution that was diluted with 0.03 M ultra pure nitric acid.\nFIG. 44 provides the chemical structure of the various chelators employed in these experiments."}, "[2]": {"test_system": "Mouse erythroleukemic cells (MEL)", "test": "HMBA-induced differentiation of erythroleukemic cells", "format": "cell-based", "conditions": "day 3", "experimental": "Mouse erythroleukemic cells (MEL): MEL cells are erythroblast like cells. Following treatment with several chemicals (differentiation inducers) the cells undergo erythroid differentiation and accumulate hemoglobin. […] At day 3 of the culture, the total number of cells and the percentage of hemoglobin-containing cells were determined (Table 7).\nOn day 3, total cell number and hemoglobin containing (benzidine positive) cells were determined."}, "NOD/SCID mice": {"test_system": "NOD/SCID mice", "test": "Engraftment of SCID mice by ex-vivo expanded human hematopoietic cells", "format": "in vivo", "conditions": "for Engraftment CD19 (%) / Engraftment CD34 (%) / Engraftment CD45 (%) / Engraftment Colonies (per 2 × 10^5 SCID BM cells): TEPA + Cytokines", "experimental": "Engraftment of SCID mice by ex-vivo expanded human hematopoietic cells: […] After 4 weeks, the mice were sacrificed and their femora and tibias were excised and the bone marrow flushed with a syringe fitted with a 25 gauge needle. A single cell suspension was prepared, the cells were washed and an aliquot counted with Trypan blue. In order to quantitate engrafted cells of human origin, cells were stained with FITC-conjugated anti CD45 antibodies and PE-conjugated either anti CD34, CD19 or CD33 antibodies. Anti CD45 antibodies recognize human, but not mouse, cells, and thus, indicates the human origin of the cells. The proliferation and differentiation potential of the engrafted cells was assayed by cloning bone marrow cells in semi-solid medium under conditions that allow specifically growth of human derived colonies essentially as described in (56)."}, "Cord blood-derived cells": {"test_system": "Cord blood-derived cells", "test": "Storage and separation of cord blood cells in the presence of TEPA, then long-term culture", "format": "cell-based", "conditions": "cells stored 24 hours at 4° C. and separated with 10 μM TEPA", "experimental": "Cord blood-derived cells were collected and stored (unseparated) for 24 hours, at 4° C., either in the presence or absence of 10 μM TEPA. CD34^+ cells were then separated using either 10 μM TEPA-PBS buffer or TEPA free PBS buffer, respectively. Then, cells were grown in long-term cultures in the presence of 10 μM TEPA."}, "[3]": {"conditions": "CB 2 (first listed) 10% FCS, 2 weeks ex-vivo"}, "[4]": {"conditions": "CB 2 (second listed) 10% FCS, 2 weeks ex-vivo"}}}
{"smiles": "NCCNCCNCCNCCN", "note": "[TEPA, tetraethylenepentamine]", "values": [{"measurement": "cell content of hepatocyte cultures", "setting": "Hepatocytes", "value": "contained many dividing and undifferentiated cells"}, {"measurement": "Average Intracellular Copper Content (ppb)", "setting": "[1]; TEPA 10 μM in medium", "value": "13.85 +/− 4.09 ppb"}, {"measurement": "Average Intracellular Copper Content (ppb)", "setting": "[1]; TEPA 50 μM in medium", "value": "8.45 +/− 0.05 ppb"}, {"measurement": "Average Intracellular Copper Content (ppb)", "setting": "[1]; TEPA 100 μM in medium", "value": "7.1 +/− 2.12 ppb"}, {"measurement": "Average Intracellular ppb Cu", "setting": "HL-60 cells; 20 μM chelator", "value": 31.5, "unit": "ppb"}, {"measurement": "Average Intracellular ppb Cu", "setting": "HL-60 cells; 100 μM chelator", "value": 24.1, "unit": "ppb"}, {"measurement": "Average Intracellular ppb Cu", "setting": "HL-60 cells; 500 μM chelator", "value": 17.1, "unit": "ppb"}, {"measurement": "activity at 20 µM", "setting": "HL-60 cells; Homo sapiens, HL-60, 20 μM chelator, read-out: Average Intracellular Cu (% of control)", "value": 64, "unit": "%"}, {"measurement": "activity at 100 µM", "setting": "HL-60 cells; Homo sapiens, HL-60, 100 μM chelator, read-out: Average Intracellular Cu (% of control)", "value": 49, "unit": "%"}, {"measurement": "activity at 500 µM", "setting": "HL-60 cells; Homo sapiens, HL-60, 500 μM chelator, read-out: Average Intracellular Cu (% of control)", "value": 35, "unit": "%"}, {"measurement": "Benzidine Positive Cells (%)", "setting": "[2]; HMBA + chelator 5 μM", "value": 24, "unit": "%"}, {"measurement": "Cells/ml (×10^4)", "setting": "[2]; HMBA + chelator 5 μM", "value": "35 ×10^4"}, {"measurement": "Benzidine Positive Cells (%)", "setting": "[2]; HMBA + chelator 10 μM", "value": 16, "unit": "%"}, {"measurement": "Cells/ml (×10^4)", "setting": "[2]; HMBA + chelator 10 μM", "value": "35 ×10^4"}, {"measurement": "Benzidine Positive Cells (%)", "setting": "[2]; HMBA + chelator 20 μM", "value": 16, "unit": "%"}, {"measurement": "Cells/ml (×10^4)", "setting": "[2]; HMBA + chelator 20 μM", "value": "47 ×10^4"}, {"measurement": "Engraftment CD19 (%)", "setting": "NOD/SCID mice; [3]", "value": 11, "unit": "%"}, {"measurement": "Engraftment CD34 (%)", "setting": "NOD/SCID mice; [3]", "value": 13, "unit": "%"}, {"measurement": "Engraftment CD45 (%)", "setting": "NOD/SCID mice; [3]", "value": 56, "unit": "%"}, {"measurement": "Engraftment Colonies (per 2 × 10^5 SCID BM cells)", "setting": "NOD/SCID mice; [3]", "value": 330}, {"measurement": "Engraftment CD19 (%)", "setting": "NOD/SCID mice; [4]", "value": 9, "unit": "%"}, {"measurement": "Engraftment CD34 (%)", "setting": "NOD/SCID mice; [4]", "value": 13.5, "unit": "%"}, {"measurement": "Engraftment CD45 (%)", "setting": "NOD/SCID mice; [4]", "value": 48, "unit": "%"}, {"measurement": "Engraftment Colonies (per 2 × 10^5 SCID BM cells)", "setting": "NOD/SCID mice; [4]", "value": 528}, {"measurement": "Engraftment CD19 (%)", "setting": "NOD/SCID mice; CB 3 10% FCS, 2 weeks ex-vivo", "value": 5, "unit": "%"}, {"measurement": "Engraftment CD34 (%)", "setting": "NOD/SCID mice; CB 3 10% FCS, 2 weeks ex-vivo", "value": 4, "unit": "%"}, {"measurement": "Engraftment CD45 (%)", "setting": "NOD/SCID mice; CB 3 10% FCS, 2 weeks ex-vivo", "value": 20, "unit": "%"}, {"measurement": "Engraftment Colonies (per 2 × 10^5 SCID BM cells)", "setting": "NOD/SCID mice; CB 3 10% FCS, 2 weeks ex-vivo", "value": 100}, {"measurement": "Engraftment CD19 (%)", "setting": "NOD/SCID mice; CB 4 1% FCS, 2 weeks ex-vivo", "value": 8, "unit": "%"}, {"measurement": "Engraftment CD34 (%)", "setting": "NOD/SCID mice; CB 4 1% FCS, 2 weeks ex-vivo", "value": 7, "unit": "%"}, {"measurement": "Engraftment CD45 (%)", "setting": "NOD/SCID mice; CB 4 1% FCS, 2 weeks ex-vivo", "value": 28, "unit": "%"}, {"measurement": "Engraftment Colonies (per 2 × 10^5 SCID BM cells)", "setting": "NOD/SCID mice; CB 4 1% FCS, 2 weeks ex-vivo", "value": 185}, {"measurement": "Engraftment CD19 (%)", "setting": "NOD/SCID mice; CB 4 1% FCS, 4 weeks ex-vivo", "value": 14, "unit": "%"}, {"measurement": "Engraftment CD34 (%)", "setting": "NOD/SCID mice; CB 4 1% FCS, 4 weeks ex-vivo", "value": 9, "unit": "%"}, {"measurement": "Engraftment CD45 (%)", "setting": "NOD/SCID mice; CB 4 1% FCS, 4 weeks ex-vivo", "value": 40, "unit": "%"}, {"measurement": "Engraftment Colonies (per 2 × 10^5 SCID BM cells)", "setting": "NOD/SCID mice; CB 4 1% FCS, 4 weeks ex-vivo", "value": 267}, {"measurement": "Engraftment CD19 (%)", "setting": "NOD/SCID mice; CB 5- FCS, 4 weeks ex-vivo", "value": 9, "unit": "%"}, {"measurement": "Engraftment CD34 (%)", "setting": "NOD/SCID mice; CB 5- FCS, 4 weeks ex-vivo", "value": 6, "unit": "%"}, {"measurement": "Engraftment CD45 (%)", "setting": "NOD/SCID mice; CB 5- FCS, 4 weeks ex-vivo", "value": 21, "unit": "%"}, {"measurement": "Engraftment Colonies (per 2 × 10^5 SCID BM cells)", "setting": "NOD/SCID mice; CB 5- FCS, 4 weeks ex-vivo", "value": 275}, {"measurement": "Engraftment CD19 (%)", "setting": "NOD/SCID mice; CB 6 1% FCS, 2 weeks ex-vivo", "value": 19, "unit": "%"}, {"measurement": "Engraftment CD34 (%)", "setting": "NOD/SCID mice; CB 6 1% FCS, 2 weeks ex-vivo", "value": 16, "unit": "%"}, {"measurement": "Engraftment CD45 (%)", "setting": "NOD/SCID mice; CB 6 1% FCS, 2 weeks ex-vivo", "value": 73, "unit": "%"}, {"measurement": "Engraftment Colonies (per 2 × 10^5 SCID BM cells)", "setting": "NOD/SCID mice; CB 6 1% FCS, 2 weeks ex-vivo", "value": 350}, {"measurement": "Engraftment CD19 (%)", "setting": "NOD/SCID mice; CB 6 10% FCS, 2 weeks ex-vivo", "value": 26, "unit": "%"}, {"measurement": "Engraftment CD34 (%)", "setting": "NOD/SCID mice; CB 6 10% FCS, 2 weeks ex-vivo", "value": 9, "unit": "%"}, {"measurement": "Engraftment CD45 (%)", "setting": "NOD/SCID mice; CB 6 10% FCS, 2 weeks ex-vivo", "value": 73, "unit": "%"}, {"measurement": "Engraftment Colonies (per 2 × 10^5 SCID BM cells)", "setting": "NOD/SCID mice; CB 6 10% FCS, 2 weeks ex-vivo", "value": 420}, {"measurement": "cord blood samples (of 6) expanded ex-vivo that succeeded to engraft the animals", "setting": "NOD/SCID mice; expanded in the presence of TEPA", "value": 6}, {"measurement": "duration of expansion of long-term cultures", "setting": "Cord blood-derived cells", "value": 8, "unit": "weeks"}]}
